Measurements: patent US20190388421A1, “NOVEL COMPOUNDS AND PHARMACEUTICAL COMPOSITIONS THEREOF FOR THE TREATMENT OF FIBROSIS” (Galapagos NV, priority 2016, published 2019)

Columns and labels:
[1] = molecular target: T1, human GPCR sphingosine 1-phosphate receptor 2 (S1PR2) (Homo sapiens, UniProt O95136); test: S1P2 antagonist assay (Ca2+ flux, S1P at EC80); assay type: cell-based; details: CHO-S1PR2 cells, highest concentration 20 μM
T1 construct: host or cells: CHO
Experimental: Triggering of S1PR2 by administration of Sphingosine-1-phosphate leads to a transient increase in intracellular Ca^2+. The Ca^2+ flux assays are measuring the release of Ca^2+ intracellularly by use of a Ca^2+ sensitive fluorescent dye. The assay is firstly run in agonist mode (incubation of compounds alone) to ensure that the Ca^2+ released measured is not caused by the test compound having an agonistic effect. Then the assay is continued in antagonist mode (Sphingosine-1-Phosphate added to incubated medium containing the test compounds).
CHO cells stably overexpressing human GPCR sphingosine 1-phosphate receptor 2 (CHO—S1PR2 Perkin Elmer; ES-594-A) are seeded from a frozen stock in 384 wells sterile microplates (50 μL; 7,500 cells/well) and are incubated overnight at 37° C. and 5% CO2. The next day cells are washed twice with starvation medium (F-12 Ham's medium containing 0.1% BSA (Fatty acid free: FAF)) and left in […] starvation medium for 1 h at 37° C., 5% CO2. After this starvation cells are incubated with […] buffer containing the Ca^2+-sensitive fluorescent dye (0.5 mg Fluo8+125 mg Allura Red in 100 ml of 1% DMSO, in HBSS+20 mM Hepes+5 mM probenecid). The cells are incubated for an additional 1 hour after which 10 μL compounds, diluted in HBSS buffer with 20 mM Hepes and 0.1% BSA (FAF), are added to the cells and intracellular Ca^2+ changes are immediately measured by reading fluorescence during 3 min (FDSS/μCELL reader). The ratio of the maximal fluorescence over the background fluorescence before compound injection is used to determine compound response.
(§1) After readout of the agonist activity, the plates are incubated for 15 min at 37° C. and 5% CO2. Then, cells are stimulated with 10 μL Sphingosine-1-Phosphate (S1P) (Avanti Polar lipids-860492P) at its EC80 concentration. Intracellular Ca^2+ changes are immediately measured by reading fluorescence during 3 min (FDSS/μCELL reader). The ratio of the maximal fluorescence over the background fluorescence before compound injection is used to determine compound response.
(§2) For EC50 determination, a 10 point dilution series of compounds starting from 23.3 μM and 20 μM highest final concentration for agonist and antagonist respectively, ⅓ dilution was performed.
(§3) The obtained ratio's for agonist and antagonist readout were normalized versus vehicle and EC100 of S1P as controls for agonist mode and versus vehicle and EC80 of S1P for antagonist mode. From these normalized data EC50 of the compounds are derived.

S1PR2 = molecular target: T2, S1PR2 (Homo sapiens, UniProt O95136); test: GTP-γS binding assay ([35S]GTPγS, S1P at EC80, S1PR2 membranes); assay type: biochemical; details: membranes from stable cell line over expressing S1PR2, read-out: S1PR2 EC
T2 construct: expressed in transfected cells
T2 sequence (O95136 whole entry): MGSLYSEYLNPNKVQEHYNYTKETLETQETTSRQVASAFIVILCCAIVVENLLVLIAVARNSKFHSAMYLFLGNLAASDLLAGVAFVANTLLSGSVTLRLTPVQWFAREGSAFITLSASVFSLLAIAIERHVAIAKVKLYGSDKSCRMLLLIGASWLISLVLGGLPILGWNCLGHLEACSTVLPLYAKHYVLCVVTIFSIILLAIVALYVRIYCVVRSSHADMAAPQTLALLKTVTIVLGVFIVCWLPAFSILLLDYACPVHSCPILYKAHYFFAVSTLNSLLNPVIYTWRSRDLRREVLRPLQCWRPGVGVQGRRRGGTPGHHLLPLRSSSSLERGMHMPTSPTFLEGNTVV
Experimental: The following assay can be used for determination of S1PR2 activation. The [^35S] GTPγS assay measures the level of G protein activation following agonist occupation of a GPCR, by determining the binding of the non-hydrolysable analog [^35S] GTPγS to Gα subunits.
The assay is performed in a 96 well plate where the following reagents are added. First 50 μL compound is added into the assay plate, followed by addition of 20 μL S1P at EC80 concentration (concentration which gives 80% of the activity of S1PR2). Then, 30 μL of a mixture consisting of membranes-GTPγS-SpA beads is added [mixture consists of 2.5 μg/well membranes derived from stable cell line over expressing S1PR2 (membranes are pre-incubated with 1 μM GDP for 15 min at 4° C.), 0.1 nM [35S]GTPγS (Perkin Elmer, NEG030) and 0.5 mg/well PVT-WGA SpA beads (Perkin Elmer, RPNQ0001)]. All components are diluted in assay buffer containing 20 mM Tris pH 7.5; 10 mM MgCl2; 100 mM NaCl; 0.1% BSA FAF; 50 ug/ml saponin. After an incubation for 4 h at room temperature, plates are centrifuged at 2000 rpm during 20 min. Plates are read on a Topcount reader (Perkin Elmer) immediately after centrifugation (readout time, 1 min/well).

HFL-1 cells [2] = test: IL8 assay (S1P induced IL-8 production); assay type: cell-based; details: Homo sapiens, HFL1; S1P (1 μM) induced IL-8, HFL-1 cells, without HSA
Experimental: (§4) S1P is able to induce cytokines such as IL-8 in a process that is S1PR2 dependent (O'Sullivan et al, 2014; Bruennert et al, 2015). This assay is designed to test inhibitory activity of compounds on S1P induced IL-8 on HFL-1 cells, a human fetal lung fibroblast cell line.
Human Fetal Lung cells (HFL-1) are seeded in 96 well plates in growth medium (F12K+10% heat inactivated FBS+1% Pen/strep). After overnight incubation at 37° C., 5% CO2 cells are refreshed with starvation medium without HSA (F12K+1% FBS+1% Pen/strep). On day three, compounds are added (10 point serial dilution, 30 μM highest concentration, ⅓ dilution, 0.3% DMSO final) and plates are incubated for one hour at 37° C., 5% CO2. Subsequently S1P at 1 μM final concentration is added and plates are incubated for 16 to 24 hours at 37° C., 5% CO2 after which the supernatant was collected. IL-8 levels in the supernatant are determined with the IL-8 ELISA of R&D systems.

HFL-1 cells [3] = test: IL8 assay in the presence of Human Serum Albumin; assay type: cell-based; details: HFL1, S1P (5 μM) induced IL-8, HFL-1 cells, with 2% HSA, read-out: HSA IL8 EC50
Experimental: as §4
To evaluate the influence of plasma protein binding of Sip as well as compound, the S1P induced IL-8 levels were evaluated in presence of 2% Human Serum Albumin (HSA, equivalent to 40% human serum). By adding 2% HSA, which affects both the activity of the compounds as well as the S1P potency, the physiological condition are reproduced and the shift in potency expected under in vivo serum conditions can be measured.
Human Fetal Lung cells (HFL-1) are seeded in 96 well plates in growth medium (F12K+10% heat inactivated FBS+1% Pen/strep). After overnight incubation at 37° C., 5% CO2 cells are refreshed with starvation medium with HSA (F12K+1% FBS+1% Pen/strep+1.95% HSA). On day three, compounds are added (10 point serial dilution, 30 μM highest concentration, 1/3 dilution, 0.3% DMSO final) and plates are incubated for 1 h at 37° C., 5% CO2. Subsequently S1P at 5 μM final concentration is added and plates are incubated for 16 to 24 h at 37° C., 5% CO2 after which the supernatant was collected. IL-8 levels in the supernatant are determined with the IL-8 ELISA of R&D systems.

[4] = molecular target: T3, human GPCR sphingosine 1-phosphate receptor 1 (S1PR1) (Homo sapiens, UniProt P21453); test: S1PR1 selectivity assay (Ca2+ flux, antagonist); assay type: cell-based; details: S1P1 antagonist EC50, CHO cells overexpressing human S1PR1 and Gq protein
T3 construct: host or cells: CHO
T3 sequence (P21453 whole entry): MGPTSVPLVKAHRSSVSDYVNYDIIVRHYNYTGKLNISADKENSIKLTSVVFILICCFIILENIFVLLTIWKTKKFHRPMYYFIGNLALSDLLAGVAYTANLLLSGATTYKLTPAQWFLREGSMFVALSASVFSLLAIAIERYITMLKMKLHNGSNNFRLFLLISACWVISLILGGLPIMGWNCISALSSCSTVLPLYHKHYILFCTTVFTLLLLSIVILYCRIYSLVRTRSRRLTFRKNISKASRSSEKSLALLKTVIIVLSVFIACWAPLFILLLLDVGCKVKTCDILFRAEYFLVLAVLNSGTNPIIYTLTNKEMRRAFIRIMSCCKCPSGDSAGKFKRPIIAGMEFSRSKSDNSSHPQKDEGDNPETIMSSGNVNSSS
Experimental: as §1, §2, §3
(§5) To evaluate the selectivity of the compounds for S1PR2 over S1PR1 and S1PR5, a similar assay set up as described above for the S1PR2 calcium flux assays was performed: CHO cells stably overexpressing human GPCR sphingosine 1-phosphate receptor 1 and Gq protein (Euroscreen, FAST-0197A) or overexpressing human GPCR sphingosine 1-phosphate receptor 5 and Gq protein were used (Perkin Elmer, ES-593-A). In case of the S1PR5 assay triggering was done with an S1PR5 specific agonist instead of with S1P (Hobson et al., 2015).

[5] = molecular target: T4, human GPCR sphingosine 1-phosphate receptor 5 (S1PR5) (Homo sapiens, UniProt Q9H228); test: S1PR5 selectivity assay (Ca2+ flux, antagonist, S1PR5 specific agonist trigger); assay type: cell-based; details: S1P5 antagonist EC50, CHO cells overexpressing human S1PR5 and Gq protein
T4 construct: host or cells: CHO
T4 sequence (Q9H228 whole entry): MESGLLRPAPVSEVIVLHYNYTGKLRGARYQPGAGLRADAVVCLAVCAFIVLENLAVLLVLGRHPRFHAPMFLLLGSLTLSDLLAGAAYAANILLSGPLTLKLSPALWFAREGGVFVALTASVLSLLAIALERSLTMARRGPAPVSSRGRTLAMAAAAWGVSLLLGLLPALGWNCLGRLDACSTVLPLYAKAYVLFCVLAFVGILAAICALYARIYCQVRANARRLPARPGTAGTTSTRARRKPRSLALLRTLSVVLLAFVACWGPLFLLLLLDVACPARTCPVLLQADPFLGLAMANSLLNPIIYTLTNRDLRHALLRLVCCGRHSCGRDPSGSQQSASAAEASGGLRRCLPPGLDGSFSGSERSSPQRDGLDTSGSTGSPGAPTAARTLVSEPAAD
Experimental: as §1, §2, §3, §5

T1 sequence (O95136 whole entry): as the sequence (O95136 whole entry) above

| SMILES | EC50 [1] | EC50 (S1PR2) | EC50 (HFL-1 cells [2]) | IC50 (HFL-1 cells [3]) | EC50 [4] | EC50 [5] |
| --- | --- | --- | --- | --- | --- | --- |
| Cc1cc(CNC(=O)Nc2cc(Cl)nc(OCCF)c2)nnc1-c1cn(C)nc1C(F)(F)F [Compound 16, 1-[2-chloro-6-(2-fluoroethoxy)-4-pyridyl]-3-[[5-methyl-6-[1-methyl-3-(trifluoromethyl)pyrazol-4-yl]pyridazin-3-yl]methyl]urea] | 10.8 nM | 62.9 nM | 4.6 nM | 74.9 nM |  |  |
| Cc1cc(CNC(=O)Nc2cc(Cl)nc(Cl)c2)nnc1-c1cn(C)nc1C(F)(F)F [Compound 21, 1-(2,6-dichloro-4-pyridyl)-3-[[5-methyl-6-[1-methyl-3-(trifluoromethyl)pyrazol-4-yl]pyridazin-3-yl]methyl]urea] | 17.3 nM | 136 nM | 11.3 nM | 393 nM |  |  |
| Cc1cc(CNC(=O)Nc2cc(OCC3CC(F)(F)C3)nc(C(F)(F)F)c2)nnc1-c1cn(C)nc1C(F)(F)F [Compound 42, 1-[2-[(3,3-difluorocyclo-butyl)methoxy]-6-(trifluoromethyl)-4-pyridyl]-3-[[5-methyl-6-[1-methyl-3-(trifluoromethyl)pyrazol-4-yl]pyridazin-3-yl]methyl]urea] | 292 nM | 604 nM | 50.9 nM | 1240 nM |  |  |
| CCOc1cc(NC(=O)NCc2cc(C)c(-c3cn(CC(C)O)nc3C(F)(F)F)nn2)cc(C(F)(F)F)n1 (stereo not shown) [Compound 56, 1-[2-ethoxy-6-(trifluoromethyl)-4-pyridyl]-3-[[6-[1-(2-hydroxypropyl)-3-(trifluoromethyl)pyrazol-4-yl]5-methyl-pyridazin-3-yl]methyl]urea] | 11.2 nM | 129 nM | 4.6 nM | 98.5 nM |  |  |
| Cn1cc(-c2nnc(CNC(=O)Nc3cc(Cl)nc(OCC(F)F)c3)cc2C2CC2)c(C(F)(F)F)n1 [Compound 61, 1-[2-chloro-6-(2,2-difluoroethoxy)-4-pyridyl]-3-[[5-cyclopropyl-6-[1-methyl-3-(trifluoromethyl)pyrazol-4-yl]pyridazin-3-yl]methyl]urea] | 14 nM | 193 nM |  |  | 919 nM | 4040 nM |

Second part, the compound after the results:

| EC50 [1] | EC50 (S1PR2) | EC50 (HFL-1 cells [2]) | IC50 (HFL-1 cells [3]) | EC50 [4] | EC50 [5] | SMILES |
| --- | --- | --- | --- | --- | --- | --- |
| 3130 nM | 2370 nM |  |  | 345 nM | 11000 nM | Cn1cc(-c2nnc(CNC(=O)Nc3cc(Cl)nc(OCC(F)F)c3)cc2N2CCOCC2)c(C(F)(F)F)n1 [Compound 62, 1-[2-chloro-6-(2,2-difluoroethoxy)-4-pyridyl]-3-[[6-[1-methyl-3-(trifluoromethyl)pyrazol-4-yl]-5-morpholino-pyridazin-3-yl]methyl]urea] |
| 4250 nM |  | 996 nM | 29900 nM |  |  | CCOc1cc(NC(=O)NCc2nnc(-c3cn(C)nc3C(F)(F)F)c(C)c2C)cc(C(F)(F)F)n1 [Compound 66, 1-[[4,5-dimethyl-6-[1-methyl-3-(trifluoromethyl)pyrazol-4-yl]pyridazin-3-yl]methyl]-3-[2-ethoxy-6-(trifluoromethyl)-4-pyridyl]urea] |
|  | 28700 nM | 2180 nM | 9950 nM |  |  | Cc1cc(CNC(=O)Nc2cc(OCC(=O)N(C)C)nc(C(F)(F)F)c2)nnc1-c1cn(C)nc1C(F)(F)F [Compound 67, N,N-dimethyl-2-[[4-[[5-methyl-6-[1-methyl-3-(trifluoromethyl)pyrazol-4-yl]pyridazin-3-yl]methyl-carbamoyla-mino]-6-(trifluoromethyl)-2-pyridyl]oxy]acetamide] |
| 904 nM | 904 nM |  |  | ≥ 19800 nM | ≥ 19800 nM | Cc1cn(-c2nnc(CNC(=O)Nc3cc(Cl)nc(OCC(F)F)c3)cc2C)c(C)n1 [Compound 70] |
|  | 20000 nM | 2740 nM | 29900 nM |  |  | CCOc1nc(C)cc(NC(=O)NCc2cc(C)c(-c3cn(C)nc3C(F)(F)F)nn2)c1C#N [Compound 77, 1-(3-cyano-2-ethoxy-6-methyl-4-pyridyl)-3-[[5-methyl-6-[1-methyl-3-(trifluoromethyl)pyrazol-4-yl]pyridazin-3-yl]methyl]urea] |
